{"source": "patent US11149086B2", "about": "“KV1.3 binding immunoglobulins” (Ablynx N.V., priority 2014, dated 2021)", "key": {"CCR7−CD45RA− T cells": {"system": "CCR7−CD45RA− T cells", "type": "cell-based, human", "details": "monovalent Nanobodies", "source_text": "The purified anti-Kv1.3 Nanobodies were characterized in a T Cell-activation assay. Human T Cells were first collected from Buffy Coat blood (from healthy volunteers, Bloodbank Gent) using RosetteSep (StemCell Technologies, #15061) followed by an enrichment on Ficoll-Paque™ PLUS (GE Healthcare #17-1440-03). CCR7−CD45RA− T cells were isolated through negative selection using biotinylated antibodies against CD45RA (BD Bioscience #624008) and CCR7 (BD Bioscence #624009) in addition to the Dynabeads Biotin Binder (Invitrogen #110.47). […]\nIsolated CCR7^−CD45RA^− T Cells were then stimulated on anti-CD3 (eBioscience 16-0037-85; 540 ng/ml) coated 96-well plates at a concentration of 200 000 cells/well in absence or presence of dilution series of anti-Kv1.3 antibodies and ShK positive control (Smartox, #08SHK001). After 72 h, IFN-gamma production was measured with anti-human IFNγ antibody capture in ELISA (BD Bioscence #551221) combined with biotinylated anti-human IFNγ (BD Bioscience, #554550) and streptavidin-HRP (Dakocytomation #P0397) as detection (FIG. 11A-11B).\nIn addition, also CD25 expression was measured in flow cytometry, using an anti-CD25 antibody (BD Pharmingen, cat 557138) (FIG. 11C-11D). […]"}, "human Kv1.3": {"target": "T1, human Kv1.3 (Homo sapiens, UniProt P22001)", "T1 construct": "cell lines stably expressing the full length human Kv1.3 channel", "T1 sequence (P22001 whole entry)": "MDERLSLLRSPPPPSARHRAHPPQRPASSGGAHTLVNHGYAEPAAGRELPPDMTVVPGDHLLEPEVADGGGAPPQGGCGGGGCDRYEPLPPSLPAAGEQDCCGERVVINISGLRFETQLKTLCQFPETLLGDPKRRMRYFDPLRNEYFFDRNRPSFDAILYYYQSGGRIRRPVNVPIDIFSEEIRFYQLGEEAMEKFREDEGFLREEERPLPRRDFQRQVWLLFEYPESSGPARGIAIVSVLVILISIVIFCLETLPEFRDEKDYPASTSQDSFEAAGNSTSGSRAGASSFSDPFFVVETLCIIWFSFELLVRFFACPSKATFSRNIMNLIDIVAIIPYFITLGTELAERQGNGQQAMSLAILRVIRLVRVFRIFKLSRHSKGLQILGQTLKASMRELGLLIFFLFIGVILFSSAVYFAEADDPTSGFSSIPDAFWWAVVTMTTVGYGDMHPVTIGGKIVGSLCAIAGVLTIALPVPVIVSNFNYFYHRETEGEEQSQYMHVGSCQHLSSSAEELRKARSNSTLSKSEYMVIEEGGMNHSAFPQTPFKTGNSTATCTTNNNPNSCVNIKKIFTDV", "test": "FACS competition with FAM-labeled ShK on HEK293H human Kv1.3 cells", "type": "binding", "details": "70 nM ShK-FAM", "method": "To evaluate the competition between the toxin ShK and the Nanobodies for binding to Kv1.3, a FACS competition experiment was performed using HEK293H cells overexpressing human Kv1.3 and the parental HEK293H cells as background cell line. As detection reagent, FAM-labeled ShK was used (6-FAM-AEEAc-Stichodactyla helianthus Neurotoxin (ShK) (Bachem, H-6088, 1046522, PRT00000366/01/01)). To setup the assay, first a titration series of the labeled Shk-FAM was performed on the HEK293H Kv1.3 cells in order to determine the EC50 value for binding.\nIn brief, a dilution series of ShK or Nanobody were added together with the labeled toxin to 200 000 cells in a 96-well plate. After 90 minutes incubation at 4° C., cells were washed three times before read out was performed on a FACS Canto (Becton Dickinson). First a gate was set on the intact cells as determined from the scatter profile. Next, dead cells were gated out by their fluorescence profile from the TOPRO stain (5 nM, Molecular probes, T3605). […] The percentage of inhibition for Nanobodies blocking the interaction of ShK to human Kv1.3 is depicted in Table B-11."}, "human PBMCs": {"system": "human PBMCs", "test": "IFNγ production by human PBMCs after anti-CD3 with or without anti-CD28 stimulation", "type": "cell-based", "method": "The anti-Kv1.3 inhibitory Nanobodies were evaluated for their effect on cytokine secretion by plate-bound anti-CD3/CD28 stimulated PBMCs. ShK was included as reference compound (FIG. 30). This co-stimulation of T-cells with anti-CD3 and anti-CD28 reflects strong immune stimulation as encountered during an acute infection. Single stimulation with anti-CD3 imitates rather the moderate immune stimulation resembling the situation during e.g. an autoimmune disease.\nBriefly, PBMCs were first collected from Buffy Coat blood (from healthy volunteers, Bloodbank Gent) using RosetteSep (StemCell Technologies, #15061) followed by an enrichment on Ficoll-Paque™ PLUS (GE Healthcare #17-1440-03). The purity of the population was afterwards checked with anti-CD3 (eBioscience #12-0037-73); anti-CD8 (BD Bioscience #345775); anti-CD4 (BD Bioscience #345771); anti-CD45RO (BD Bioscience #555493); anti-CD45RA (BD Bioscience #550855) and anti-CD19 (BD Bioscience #555413) fluorescently labeled antibodies in a flow cytometric assay. […] After 72 h, IFN-gamma production was measured with anti-human IFNγ antibody capture in ELISA (BD Bioscence #551221) combined with biotinylated anti-human IFNγ (BD Bioscience, #554550) and streptavidin-HRP (Dakocytomation #P0397) as detection."}, "[1]": {"system": "DNFB-induced delayed type hypersensitivity in Wistar rats", "test": "DNFB-induced delayed-type hypersensitivity (DTH) rat model, ear swelling", "type": "in vivo", "source_text": "A delayed-type hypersensitivity (DTH) reaction is an expression of T cell-mediated immunity in response to cutaneous sensitization and challenge with reactive haptens like 2, 4-dinitrofluorobenzene (DNFB), largely mediated by skin-homing effector memory T cells (Azam P et al., J Invest Dermatol 127(6):1419-29, 2007; Matheu M P et al., Immunity 29(4):602-14, 2008). The voltage-gated potassium channel Kv1.3 is expressed in T cells, and is important in maintaining T cell activation (predominantly effector memory T cells).\nFor the purpose of in vivo proof-of-concept, the efficacy of anti-Kv1.3 Nanobodies on DNFB-induced delayed type hypersensitivity in Wistar rats was evaluated. The DTH response in the rats was elicited as follows (see FIG. 37): on day 0 (start of the in-life) and day 1, 100 μl of 1% (wt/vol) DNFB prepared in 4:1 acetone/olive oil was applied to the shaved dorsum for sensitization. On day 5, animals were challenged on both sides of the right ear pinnae of the animals with 50 μl of 0.5% (wt/vol) DNFB prepared in 4:1 acetone: olive oil. […] As positive control, animals were treated with dexamethasone (topical, 0.75 mg at 1 hour and 6 hours post-challenge). On day 5 before DNFB challenge, the baseline right ear pinna thickness was measured, and the net ear swelling response was determined 24 hours after challenge with a spring-loaded micrometer.\nThe DTH response in the rats was elicited as follows (see FIG. 37): on day 0 (start of the in-life) and day 1, 100 μl of 1% (wt/vol) DNFB prepared in 4:1 acetone/olive oil was applied to the shaved dorsum for sensitization. On day 5, animals were challenged on both sides of the right ear pinnae of the animals with 50 μL of 0.5% (wt/vol) DNFB prepared in 4:1 acetone: olive oil. Animals (n=10 rats/group) received two subcutaneous (s.c.) injections of either vehicle, the benchmark compound ShK or the anti-Kv1.3 Nanobody at 12 hours and/or 1 hour preceding the challenge. As positive control, animals were treated with dexamethasone (topical, 0.75 mg at 1 hour and 6 hours post-challenge). On day 5 before DNFB challenge, the baseline right ear pinna thickness was measured, and the net ear swelling response was determined 24 hours after challenge with a spring-loaded micrometer."}}, "note": "pIC50: −log10 of the molar value. Bridge positions count the residues as written; N and C are the ends. Peptide text beside a SMILES is read from it."}
{"smiles": "CC[C@H](C)[C@H](NC(=O)[C@@H](N)[C@@H](C)O)C(=O)N[C@H](C(=O)N[C@@H](CC(N)=O)C(=O)N[C@H](C(=O)N[C@@H](CCCCN)C(=O)N[C@H]1CSSC[C@@H]2NC(=O)[C@H](CCCCN)NC(=O)[C@H](C)NC(=O)CNC(=O)[C@H](C)NC(=O)[C@H](CO)NC(=O)[C@H](CCC(N)=O)NC(=O)CNC(=O)[C@H](Cc3ccccc3)NC(=O)[C@H](CCC(N)=O)NC(=O)[C@H](C)NC(=O)[C@H](CCCCN)NC(=O)[C@@H]3CSSC[C@@H](C(=O)N[C@@H](Cc4ccc(O)cc4)C(=O)N4CCC[C@H]4C(=O)N[C@@H](Cc4c[nH]cn4)C(=O)O)NC(=O)[C@H](CCCCN)NC(=O)[C@H](CSSC[C@H](NC(=O)[C@H](CCC(N)=O)NC(=O)[C@H](CCCCN)NC(=O)[C@@H]4CCCN4C(=O)[C@H](CO)NC(=O)[C@H]([C@@H](C)O)NC1=O)C(=O)N[C@@H](CC(C)C)C(=O)N1CCC[C@H]1C(=O)N1CCC[C@H]1C(=O)N3)NC(=O)[C@H](CCCCN)NC(=O)CNC(=O)[C@H](CC(N)=O)NC(=O)[C@H](CCSC)NC2=O)C(C)C)[C@@H](C)CC", "note": "[MgTX, margatoxin, reference compound] (H-TIINVKCTSPKQCLPPCKAQFGQSAGAKCMNGKCKCYPH-OH; disulfide 7-29, 13-34, 17-36; N-terminus and C-terminus assumed)", "values": [{"measurement": "IC50 (in M) CD25 read out", "setting": "CCR7−CD45RA− T cells; plate bound anti-CD3", "result": "no fit"}, {"measurement": "pIC50", "setting": "CCR7−CD45RA− T cells; plate bound anti-CD3, 72 h, read-out: IC50 (in M) IFNγ read out", "result": 10.03}]}
{"smiles": "CC[C@H](C)[C@@H]1NC(=O)[C@@H](NC(=O)[C@H](CO)NC(=O)[C@@H](N)CCCNC(=N)N)CSSC[C@@H](C(=O)O)NC(=O)[C@H]([C@@H](C)O)NC(=O)CNC(=O)[C@@H]2CSSC[C@@H]3NC(=O)[C@H](CCC(N)=O)NC(=O)[C@H](Cc4ccccc4)NC(=O)[C@H](C)NC(=O)[C@H]([C@@H](C)O)NC(=O)[C@H](CSSC[C@H](NC(=O)[C@H](Cc4ccccc4)NC(=O)[C@H](CO)NC(=O)[C@H](CC(C)C)NC(=O)[C@H](CCCNC(=N)N)NC(=O)[C@H](Cc4ccc(O)cc4)NC(=O)[C@H](CCCCN)NC(=O)[C@H](CCSC)NC(=O)[C@H](CO)NC(=O)[C@H](Cc4c[nH]cn4)NC(=O)[C@H](CCCCN)NC3=O)C(=O)N[C@@H](CCCNC(=N)N)C(=O)N[C@@H](CCCCN)C(=O)N[C@@H]([C@@H](C)O)C(=O)N2)NC(=O)[C@H](CCCNC(=N)N)NC(=O)[C@H](CO)NC(=O)[C@H](CCCCN)NC(=O)[C@@H]2CCCN2C(=O)[C@H]([C@@H](C)CC)NC(=O)[C@H]([C@@H](C)O)NC(=O)[C@H](CC(=O)O)NC1=O", "note": "[ShK]", "values": [{"measurement": "blocking of FAM labeled ShK binding to Kv1.3, in words", "setting": "human Kv1.3", "result": "completely blocked"}, {"measurement": "IFNγ production, PBMCs co-stimulated with anti-CD3 and anti-CD28", "setting": "human PBMCs; anti-CD3 and anti-CD28, 72 h", "result": "do not inhibit"}, {"measurement": "IFNγ production, PBMCs stimulated with anti-CD3 only", "setting": "human PBMCs; single anti-CD3 stimulation, 72 h", "result": "Inhibition"}, {"measurement": "mean increase in ear thickness", "setting": "[1]; Example 12, two s.c. injections of 10 μg/kg, 12 h and 1 h pre-challenge", "result": "0.213±0.019", "unit": "mm"}, {"measurement": "mean increase in ear thickness", "setting": "[1]; Example 13, two s.c. injections of 100 μg/kg", "result": "0.136±0.024", "unit": "mm"}]}
{"smiles": "C[C@@H]1C[C@H]2[C@@H]3CCC4=CC(=O)C=C[C@]4(C)[C@@]3(F)[C@@H](O)C[C@]2(C)[C@@]1(O)C(=O)CO", "note": "[dexamethasone]", "values": [{"measurement": "mean increase in ear thickness", "setting": "[1]; Example 12, topical 0.75 mg at 1 h and 6 h post-challenge, 24 h after challenge", "result": "0.027±0.017", "unit": "mm"}, {"measurement": "mean increase in ear thickness", "setting": "[1]; Example 13, topical 0.75 mg at 1 h and 6 h post-challenge", "result": "0.018±0.016", "unit": "mm"}]}
